# Measured values: PubChem BioAssay AID256 (DTP/NCI, 2004)
# Values joined by “and” are separate entries in the source; they are usually repeats but may differ in a detail not shown here. Equal entries are not always repeated. Inconclusive results and toxic doses are left out. Residues, ends and D or L forms follow the SMILES beside them. *: point of attachment. Boc = CC(C)(C)OC(=O)*; NHNH2 = NN*
# Tested on: CD2F1 mice, L1210 leukemia ip, survival T/C
# Assay: NCI In Vivo Anticancer Drug Screen. Data for tumor model L1210 Leukemia (intraperitoneal) in CD2F1 (CDF1) mice
# Settings: higher = longer survival
# Method in brief: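 Tumor-bearing mice (transplanted tumor) were split into treated and vehicle control groups, and the measured endpoint of each treated group was divided by that of its vehicle controls.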
# [1] = endpoint: mean survival time, dose: 50.0 mg/kg/injection, schedule: Q01DX009 (ip), vehicle: saline
# [2] = endpoint: mean survival time, dose: 100.0 mg/kg/injection, schedule: Q01DX009 (ip), vehicle: saline
# [3] = endpoint: mean survival time, dose: 200.0 mg/kg/injection, schedule: Q01DX009 (ip), vehicle: saline
# [4] = endpoint: mean survival time, dose: 100.0 mg/kg/injection, schedule: Q01DX009 (ip), vehicle: saline with Tween-80
# [5] = endpoint: mean survival time, dose: 100.0 mg/kg/injection, schedule: Q04DX003 (ip), vehicle: saline with Tween-80
# [6] = endpoint: mean survival time, dose: 200.0 mg/kg/injection, schedule: Q01DX009 (ip), vehicle: saline with Tween-80
# [7] = endpoint: mean survival time, dose: 200.0 mg/kg/injection, schedule: Q04DX003 (ip), vehicle: saline with Tween-80
# [8] = endpoint: mean survival time, dose: 400.0 mg/kg/injection, schedule: Q01DX009 (ip), vehicle: saline with Tween-80
# [9] = endpoint: mean survival time, dose: 400.0 mg/kg/injection, schedule: Q04DX003 (ip), vehicle: saline with Tween-80
# [10] = endpoint: mean survival time, dose: 6.25 mg/kg/injection, schedule: Q01DX009 (ip), vehicle: Klucel (hydroxypropylcellulose) (HPC)
# [11] = endpoint: mean survival time, dose: 12.5 mg/kg/injection, schedule: Q01DX009 (ip), vehicle: Klucel (hydroxypropylcellulose) (HPC)
# [12] = endpoint: mean survival time, dose: 50.0 mg/kg/injection, schedule: Q01DX009 (ip), vehicle: Klucel (hydroxypropylcellulose) (HPC)
# [13] = endpoint: mean survival time, dose: 200.0 mg/kg/injection, schedule: Q01DX001 (ip), vehicle: saline with Tween-80
# [14] = endpoint: mean survival time, dose: 100.0 mg/kg/injection, schedule: Q01DX001 (ip), vehicle: saline with Tween-80
# [15] = endpoint: mean survival time, dose: 100.0 mg/kg/injection, schedule: Q04DX002 (ip), vehicle: saline with Tween-80
# [16] = endpoint: mean survival time, dose: 200.0 mg/kg/injection, schedule: Q04DX002 (ip), vehicle: saline with Tween-80
# [17] = endpoint: mean survival time, dose: 400.0 mg/kg/injection, schedule: Q01DX001 (ip), vehicle: saline with Tween-80
# [18] = endpoint: mean survival time, dose: 400.0 mg/kg/injection, schedule: Q04DX002 (ip), vehicle: saline with Tween-80
# [19] = endpoint: mean survival time, dose: 50.0 mg/kg/injection, schedule: Q04DX002 (ip), vehicle: saline with Tween-80
# [20] = endpoint: mean survival time, dose: 100.0 mg/kg/injection, schedule: Q01DX009 (ip), vehicle: Klucel (hydroxypropylcellulose) (HPC)
# [21] = endpoint: mean survival time, dose: 200.0 mg/kg/injection, schedule: Q01DX009 (ip), vehicle: Klucel (hydroxypropylcellulose) (HPC)
# [22] = endpoint: mean survival time, dose: 3.12 mg/kg/injection, schedule: Q01DX009 (ip), vehicle: saline with Tween-80
# [23] = endpoint: mean survival time, dose: 6.25 mg/kg/injection, schedule: Q01DX009 (ip), vehicle: saline with Tween-80
# [24] = endpoint: mean survival time, dose: 12.5 mg/kg/injection, schedule: Q01DX009 (ip), vehicle: saline with Tween-80
# [25] = endpoint: mean survival time, dose: 25.0 mg/kg/injection, schedule: Q01DX009 (ip), vehicle: saline with Tween-80
structure (smiles),measurement,setting,value
O=P1(Oc2ccccc2)NCC(Br)CO1 (stereo not given),T/C,"endpoint: mean survival time, dose: 18.8 mg/kg/injection, schedule: Q01DX001 (ip), vehicle: other",98 % of control
same,T/C,"endpoint: mean survival time, dose: 31.25 mg/kg/injection, schedule: Q01DX001 (ip), vehicle: other",104 % of control
same,T/C,"endpoint: mean survival time, dose: 37.5 mg/kg/injection, schedule: Q01DX001 (ip), vehicle: other",98 % of control
same,T/C,"endpoint: mean survival time, dose: 62.5 mg/kg/injection, schedule: Q01DX001 (ip), vehicle: other",107 % of control
same,T/C,"endpoint: mean survival time, dose: 75.0 mg/kg/injection, schedule: Q01DX001 (ip), vehicle: other",105 % of control
same,T/C,"endpoint: mean survival time, dose: 125.0 mg/kg/injection, schedule: Q01DX001 (ip), vehicle: other",94 % of control
same,T/C,"endpoint: mean survival time, dose: 150.0 mg/kg/injection, schedule: Q01DX001 (ip), vehicle: other",113 % of control
same,T/C,"endpoint: mean survival time, dose: 250.0 mg/kg/injection, schedule: Q01DX001 (ip), vehicle: other",100 % of control
same,T/C,"endpoint: mean survival time, dose: 300.0 mg/kg/injection, schedule: Q01DX001 (ip), vehicle: other",107 % of control
same,T/C,"endpoint: mean survival time, dose: 500.0 mg/kg/injection, schedule: Q01DX001 (ip), vehicle: other",100 % of control
CCOC(=O)C1CC2(CC(C)C1=O)OCCO2 (stereo not given),T/C,"endpoint: mean survival time, dose: 100.0 mg/kg/injection, schedule: Q04DX003 (ip), vehicle: alcohol",97 % of control
same,T/C,"endpoint: mean survival time, dose: 200.0 mg/kg/injection, schedule: Q04DX003 (ip), vehicle: alcohol",97 % of control
same,T/C,"endpoint: mean survival time, dose: 400.0 mg/kg/injection, schedule: Q04DX003 (ip), vehicle: alcohol",92 % of control
CC(C)CC(NC(=O)C(Cc1c[nH]c2ccccc12)NC(=O)OC(C)(C)C)C(=O)NN (stereo not drawn) (Boc-Trp-Leu-NHNH2; configuration not given here),T/C,"endpoint: mean survival time, dose: 25.0 mg/kg/injection, schedule: Q01DX009 (ip), vehicle: saline",105 % of control
same,T/C,[1],106 % of control and 109 % of control
same,T/C,[2],117 % of control and 124 % of control
same,T/C,[3],117 % of control
CCC1(CC)CCC(Br)C(Br)C1 (stereo not given),T/C,[4],94 % of control
same,T/C,[5],95 % of control
same,T/C,[6],94 % of control
same,T/C,[7],98 % of control
same,T/C,[8],89 % of control
same,T/C,[9],93 % of control
CN(C)C(=O)Nc1cccc(OP(=O)(N(C)C)N(C)C)c1,T/C,[5],103 % of control
same,T/C,[7],97 % of control
same,T/C,[9],99 % of control
Cc1cc(N(CCOS(C)(=O)=O)CCOS(C)(=O)=O)ccc1N=Nc1ccccc1,T/C,"endpoint: mean survival time, dose: 3.12 mg/kg/injection, schedule: Q01DX009 (ip), vehicle: Klucel (hydroxypropylcellulose) (HPC)",106 % of control
same,T/C,[10],113 % of control
same,T/C,[11],114 % of control and 124 % of control
same,T/C,"endpoint: mean survival time, dose: 25.0 mg/kg/injection, schedule: Q01DX009 (ip), vehicle: Klucel (hydroxypropylcellulose) (HPC)",101 % of control
same,T/C,[12],95 % of control
CC(=O)OC1C(NC(=O)N(CCCl)N=O)C(OC(C)=O)C(OC(C)=O)C(NC(=O)N(CCCl)N=O)C1OC(C)=O (stereo not given),T/C,"endpoint: mean survival time, dose: 20.0 mg/kg/injection, schedule: Q01DX001 (ip), vehicle: saline with Tween-80",124 % of control
same,T/C,"endpoint: mean survival time, dose: 60.0 mg/kg/injection, schedule: Q01DX001 (ip), vehicle: saline with Tween-80",164 % of control
same,T/C,"endpoint: mean survival time, dose: 90.0 mg/kg/injection, schedule: Q01DX001 (ip), vehicle: saline with Tween-80",160 % of control
same,T/C,"endpoint: mean survival time, dose: 130.0 mg/kg/injection, schedule: Q01DX001 (ip), vehicle: saline with Tween-80",174 % of control
same,T/C,[13],168 % of control
same,T/C,"endpoint: mean survival time, dose: 300.0 mg/kg/injection, schedule: Q01DX001 (ip), vehicle: saline with Tween-80",218 % of control
COc1ccc(OC)c(NC(=S)NC(=O)c2cccc(Br)c2)c1,T/C,[14],93 % of control
same,T/C,[4],95 % of control and 96 % of control
same,T/C,[15],94 % of control and 100 % of control
same,T/C,[5],95 % of control
same,T/C,[13],88 % of control
same,T/C,[6],95 % of control and 100 % of control
same,T/C,[16],94 % of control and 100 % of control
same,T/C,[7],91 % of control
same,T/C,[17],89 % of control
same,T/C,[8],92 % of control and 100 % of control
same,T/C,[18],89 % of control and 100 % of control
same,T/C,[9],95 % of control
O=C=Nc1ccc(Cl)c(Cl)c1 (tested in a mixture with another compound),T/C,[19],97 % of control
same,T/C,[15],108 % of control
same,T/C,[16],93 % of control
same,T/C,[18],89 % of control
NCCc1c[nH]c2ccccc12,T/C,[4],93 % of control
same,T/C,[6],95 % of control
same,T/C,[8],98 % of control
CCc1ccc2ccccc2c1[N+](=O)[O-],T/C,[14],105 % of control
same,T/C,[13],94 % of control
same,T/C,[17],98 % of control
CC1(C)CCC2(C)CCC3(C)C(=CCC4C5(C)CCC(O)C(C)(C)C5CCC43C)C2C1 (stereo not given),T/C,[5],98 % of control
same,T/C,[7],90 % of control
same,T/C,[9],91 % of control
O=C1CC(c2ccc(Br)cc2)N(c2ccc([As](=O)(O)O)cc2)C1=O (stereo not given),T/C,[10],95 % of control
same,T/C,[11],89 % of control
same,T/C,"endpoint: median survival time, dose: 6.25 mg/kg/injection, schedule: Q04DX003 (ip), vehicle: saline with Tween-80",100 % of control
same,T/C,"endpoint: median survival time, dose: 12.5 mg/kg/injection, schedule: Q04DX003 (ip), vehicle: saline with Tween-80",106 % of control
same,T/C,"endpoint: median survival time, dose: 25.0 mg/kg/injection, schedule: Q04DX003 (ip), vehicle: saline with Tween-80",100 % of control
CC(C)(N)CO,T/C,[1],88 % of control
same,T/C,[2],100 % of control
same,T/C,[3],100 % of control
C/C=C/C=C/C(=O)c1ccc(OC)cc1O,T/C,[19],86 % of control
same,T/C,[15],101 % of control
same,T/C,[16],89 % of control
same,T/C,[18],89 % of control
O=C(Nc1ccc(F)c(Cl)c1)Oc1ccc(OCc2ccccc2)cc1,T/C,[12],87 % of control
same,T/C,[20],98 % of control
same,T/C,[21],93 % of control
CCOC(=O)c1c(-c2ccccc2)[nH]c2ccccc2c1=O,T/C,[5],96 % of control
same,T/C,[7],98 % of control
same,T/C,[9],95 % of control
O=CNO,T/C,[14],108 % of control
same,T/C,[13],104 % of control
same,T/C,[17],104 % of control
C=CCC#N,T/C,"endpoint: mean survival time, dose: 100.0 mg/kg/injection, schedule: Q04DX003 (ip), vehicle: saline sonified",90 % of control
c1ccc2c(-c3cnc(-c4ccc(-c5ncc(-c6cccc7ccccc67)o5)cc4)o3)cccc2c1,T/C,"endpoint: mean survival time, dose: 75.0 mg/kg/injection, schedule: Q01DX001 (ip), vehicle: saline",100 % of control
same,T/C,"endpoint: mean survival time, dose: 150.0 mg/kg/injection, schedule: Q01DX001 (ip), vehicle: saline",102 % of control
same,T/C,"endpoint: mean survival time, dose: 300.0 mg/kg/injection, schedule: Q01DX001 (ip), vehicle: saline",97 % of control
CC(=O)C1CCC2(C)C(CCC3C4CCC(C(C)=O)C4(C)CC(=O)C32)C1 (stereo not given),T/C,[12],96 % of control
same,T/C,[20],100 % of control
same,T/C,[21],93 % of control
O=C(Nc1ccc(Cl)c(Cl)c1)Nc1c(Oc2ccc(Cl)c(Cl)c2)ccc(Cl)c1S(=O)(=O)O,T/C,[22],109 % of control
same,T/C,[23],109 % of control
same,T/C,[24],110 % of control
same,T/C,[25],113 % of control
same,T/C,"endpoint: mean survival time, dose: 50.0 mg/kg/injection, schedule: Q01DX009 (ip), vehicle: saline with Tween-80",104 % of control
same,T/C,[4],113 % of control
same,T/C,[5],108 % of control
same,T/C,[7],101 % of control
Nc1ccc(C(OC(=O)c2cc3ccccc3c(Cc3c(O)c(C(=O)OC(c4ccc(N)cc4)(c4ccc(N)cc4)c4ccc(N)cc4)cc4ccccc34)c2O)(c2ccc(N)cc2)c2ccc(N)cc2)cc1,T/C,"endpoint: mean survival time, dose: 0.78 mg/kg/injection, schedule: Q01DX009 (ip), vehicle: saline with Tween-80",100 % of control and 111 % of control
same,T/C,"endpoint: mean survival time, dose: 1.56 mg/kg/injection, schedule: Q01DX009 (ip), vehicle: saline with Tween-80",123 % of control and 102 % of control
same,T/C,[22],105 % of control
same,T/C,"endpoint: mean survival time, dose: 3.13 mg/kg/injection, schedule: Q01DX009 (ip), vehicle: saline with Tween-80",101 % of control
same,T/C,[23],104 % of control and 107 % of control
same,T/C,[24],88 % of control and 110 % of control
same,T/C,[25],101 % of control
